What all share (assay type): cell-based
Assay [1] addresses T1, LINE1 reverse transcriptase (Homo sapiens, UniProt O00370). Nature of the assay: Stable artificial-intron Cis LINE1 reporter assay. Details: expressed in transfected cells. Particulars: HeLa L1 artificial-intron reporter cells, doxycycline-induced, 72 h, Firefly luciferase activity. From the text: A stable HeLa Tet-On 3G (Takara, cat no 631183) cell line expressing a bi-directional inducible LINE1 construct was generated as described in Xie, Y. et al. “Cell division promotes efficient retrotransposition in a stable L1 reporter cell line,” Mobile DNA (2013) 4:10. Single cell clones were screened for high Luciferase expression and the highest expression Firefly expressing clone was chosen for compound testing.
Test compounds were serially diluted in DMSO and spotted in 96-well plates. Subsequently the HeLa L1 artificial-intron reporter cells were plated into the compound-containing wells (8,000 cells/well), and the cells were induced for reporter expression with doxycycline (Sigma cat no D9891) at a final concentration of 500 ng/mL. Luminescence was measured 72 h after plating using the Dual-Glo Luciferase Assay System (Promega cat no E2940) following the manufacturer's instructions. The Firefly Luciferase activity (normalized against its activity in a control well without test compound) was used to report LINE1 activity.
Background: In a reporter assay the amount or activity of a reporter protein is the signal.

The test system of assay [2] is IFN production in THP1 TREX1 KO cells. Nature of the assay: Cellular assay for altering IFN production in THP1 TREX1 KO cells. Particulars: for change in IFN levels (figure): FIG. 6-8, % induction versus compound concentration; for EC50 / IC50: Homo sapiens; for Concentration at Max Induct.: lowest concentration at which the maximum-fold IFN induction was observed; for Maximum IFN Induction: maximum-fold IFN induction, 1 μM 5-aza-2′-deoxycytidine; for IC50: inhibitors of IFN. Here is the method:
(§1) THP1-Dual™ KO-TREX1 cells were purchased from Invivogen (cat #thpd-kotrex). The THP1-Dual™ KO-TREX1 cells were cultured in RPMI 1640, 10% heat-inactivated fetal bovine serum, 25 mM HEPES, 10 μg/mL Blasticidin, and […] Zeocin. THP1-Dual™ KO-TREX cells were treated with a dose titration of test compound in the presence of 1 μM 5-aza-2′-deoxycytidine (Sigma, cat #189825). Type 1 Interferon and cell viability were assessed after five days of treatment.
Stock solution of test compound was prepared in DMSO followed by a three-fold dilution in DMSO. Additional 50× dilution was prepared in cell culture media for each dilution. 10 μL of diluted test compound was then added to a 384-well plate.
(§2) THP1-Dual™ KO-TREX1 cells were treated with 1 μM 5-aza-2′-deoxycytidine. THP1-Dual™ KO-TREX1 cells (50 μL) were added to each well of the 384-well plate containing test compound titration at 10,000 cells/well. Cells were incubated at 37° C., 5% CO2 in a humidified incubator for five days. On day five, 20 μL of cell supernatant was transferred to a 384-well, white-walled plate, followed by addition to each well of 50 μL of QUANTI-LUC solution containing stabilizer. Luminescence was detected on a plate reader according to manufacturer's instructions.
(§3) For certain compounds, the assay was run in a 96-well format, with the following modifications: • 190 μL, instead of 50 μL, of cells were added to each well, to provide 50,000 cells/well, instead of 10,000 cells/well, • Cells were incubated for 6 days, instead of 5 days, • 25 μL, instead of 20 μL, of cell supernatant was added to the white-walled plate for QUANT-LUC treatment; and • 25 μL, instead of 30 μL, of CellTiter-Glo was added to assess cell viability.
Percent inhibition of interferon was calculated using the following analysis: (Average DMSO-Sample)/(Average DMSO-Average 30 μM control reagent)*100. The control reagent for inhibition of interferon was a specific nucleoside reverse-transcriptase inhibitor with molecular weight <600 a.m.u. Percent induction of interferon was calculated using the following analysis: (Sample-Average DMSO)/(10 μM control reagent-Average DMSO)*100. The control reagent for induction of interferon was compound 8 (4′-ethynyl-2-chloro-2′-deoxyadenosine).

Assay [3] concerns the target T1, LINE1 reverse transcriptase. The assay is described as follows: Transient artificial-intron Cis LINE1 reporter assay. Further details: expressed in transfected cells. The settings on record: HEK 293 cells; ratio FLuc/RLuc reports LINE1 activity; tested up to 100 μM; read-out: IC50 for inhibiting FLuc luminescence. As for the experimental part:
Intron-disrupted Firefly luciferase (FLuc) expression cassettes were generated as described by Xie, Y. et al. “Characterization of L1 retrotransposition with high-throughput dual-luciferase assays,” Nucleic Acid Res. (2011) Vol. 39, No. 3, e16. In addition, the plasmid contained an intact Renilla luciferase (RLuc) expression cassette on the vector backbone, in order to normalize transfection efficiency and measure potential cell toxicity.
HEK 293 cells were seeded in 96-well plates at 1,000 cells/well in 55 μL and grown for 24 hours. Cells were transfected with FuGeneHD (Promega) following the manufacturer's protocol. Each well received 0.133 ng plasmid, 0.4 μL FuGeneHD reagent, and 4.5 μL GlutaMAX-I-supplemented Opti-MEM I reduced-serum medium (Invitrogen). Cells were simultaneously treated with test compound serially diluted starting at 100 μM in a 3-fold dilution dose response.
Luminescence was measured using the Dual-Glo Luciferase Assay System (Promega) following the manufacturer's instructions. The ratio between FLuc and RLuc gene expression was used to report LINE1 activity.

For assay [4], the system named is THP1-Dual™ KO-TREX1 cells. The assay is described as follows: CellTiter-Glo cell viability in THP1-Dual KO-TREX1 cells. Particulars: Homo sapiens, 120 h, CellTiter-Glo inhibition of cell viability, after five days of treatment, read-out: CTG IC50. As for the experimental part: as §1, §2, §3
The remaining cells were assessed for cell viability by adding 30 μl of CellTiter-Glo (Promega, G9683) solution to each well, and placed on a shaker for 10 minutes at room temperature. Luminescence was detected on a plate reader, according to manufacturer's instructions. Percent inhibition of cell viability using CellTiter-Glo was calculated using the following analysis: (Average DMSO-Sample)/(Average DMSO-Average 20 μM control reagent)*100. The control reagent was Z-Leu-Leu-leucinal (see, for example, https://pubchem.ncbi.nlm.nib.gov/compound/462382).

The mark [5] stands for this setting: THP-1, 120 h, inducers of IFN, in the presence of 1 μM 5-aza-2′-deoxycytidine, five days.
Setting [6] is: THP-1, another experiment testing the same compound (not the one of Table 7).
Where [7] appears, read: THP-1, 120 h, in the presence of 1 μM 5-aza-2′-deoxycytidine, five days.

“And” between values parts separate entries of the source, which are not always exact repeats. Equal entries are not always repeated.

In general, IC50 refers to the point on the concentration scale where inhibition reaches its midpoint. A word on the EC50: it is the concentration that produces a half-maximal response.

T1 sequence (O00370 whole entry, looked up): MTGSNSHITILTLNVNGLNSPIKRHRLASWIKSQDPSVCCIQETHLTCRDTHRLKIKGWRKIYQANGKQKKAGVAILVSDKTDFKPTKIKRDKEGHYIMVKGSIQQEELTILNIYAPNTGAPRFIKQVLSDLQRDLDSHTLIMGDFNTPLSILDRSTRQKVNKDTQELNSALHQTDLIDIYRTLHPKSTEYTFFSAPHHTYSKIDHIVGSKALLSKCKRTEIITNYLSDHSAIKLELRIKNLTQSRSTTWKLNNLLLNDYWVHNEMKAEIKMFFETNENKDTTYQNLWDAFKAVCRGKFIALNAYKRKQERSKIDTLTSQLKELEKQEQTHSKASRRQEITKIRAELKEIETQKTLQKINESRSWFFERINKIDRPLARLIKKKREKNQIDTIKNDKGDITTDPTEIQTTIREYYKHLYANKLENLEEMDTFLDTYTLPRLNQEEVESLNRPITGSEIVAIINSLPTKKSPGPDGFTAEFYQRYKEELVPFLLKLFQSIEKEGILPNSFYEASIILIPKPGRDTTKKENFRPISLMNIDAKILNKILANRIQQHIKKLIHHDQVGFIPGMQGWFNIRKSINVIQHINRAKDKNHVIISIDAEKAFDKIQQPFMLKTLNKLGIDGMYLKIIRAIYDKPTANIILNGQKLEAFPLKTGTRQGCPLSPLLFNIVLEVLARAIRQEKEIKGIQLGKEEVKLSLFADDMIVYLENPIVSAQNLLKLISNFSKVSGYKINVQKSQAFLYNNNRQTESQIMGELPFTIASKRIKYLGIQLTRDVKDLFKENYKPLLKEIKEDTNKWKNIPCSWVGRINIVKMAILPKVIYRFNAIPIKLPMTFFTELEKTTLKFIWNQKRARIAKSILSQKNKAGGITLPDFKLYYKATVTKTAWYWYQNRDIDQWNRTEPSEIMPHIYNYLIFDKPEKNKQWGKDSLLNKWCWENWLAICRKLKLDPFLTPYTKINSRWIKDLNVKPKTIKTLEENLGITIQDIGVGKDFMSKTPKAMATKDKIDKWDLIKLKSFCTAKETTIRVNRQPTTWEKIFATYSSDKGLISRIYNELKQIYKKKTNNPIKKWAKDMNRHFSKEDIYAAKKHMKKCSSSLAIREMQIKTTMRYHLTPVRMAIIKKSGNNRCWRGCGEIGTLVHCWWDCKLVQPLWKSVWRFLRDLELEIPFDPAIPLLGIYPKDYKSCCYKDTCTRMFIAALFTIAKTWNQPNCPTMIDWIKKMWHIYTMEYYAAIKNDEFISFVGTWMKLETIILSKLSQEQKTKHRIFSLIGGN

Regarding `C#C[C@]1(CO)O[C@@H](n2cnc3c(N)ncnc32)C[C@@H]1O` [4′-ethynyl-2′-deoxyadenosine, reference compound], the IC50 in assay [1] is not above 50 nM; in assay [3] it was 41 nM. Further, in assay [2], the “change in IFN levels (figure)” value was “induction of IFN”.

Take `Cc1cn([C@H]2C[C@H](N=[N+]=[N-])[C@@H](CO)O2)c(=O)[nH]c1=O` [AZT (zidovudine), Zidovudine, reference compound]: the values for the IC50 in assay [1] and in assay [3] were more than 500 nM and more than 100000 nM, respectively.

As for `C#C[C@]1(CO)O[C@@H](n2cnc3c(N)nc(Cl)nc32)C[C@@H]1O` [Compound 8, 4′-ethynyl-2-chloro-2′-deoxyadenosine, reference compound], the IC50 in assay [1] was not above 50 nM; in assay [3], 8.3 nM. The “change in IFN levels (figure)” value in assay [2] is “induction of IFN”.

For the molecule `C#C[C@]1(CO[P@@](=O)(N[C@@H](C)C(=O)OC(C)C)Oc2ccccc2)O[C@@H](n2cnc3c(N)nc(Cl)nc32)C[C@@H]1O` [Compound I-1, Isopropyl ((S)-(((2R,3S,5R)-5-(6-amino-2-chloro-9H-purin-9-yl)-2-ethynyl-3-hydroxytetrahydrofuran-2-yl)methoxy)(phenoxy)phosphoryl)-L-alaninate], the IC50 in assay [1] is 50 to 500 nM and ≤ 50 nM; in assay [4] it was more than 10000 nM. The EC50 in assay [2] (setting [5]) was 1000 to 10000 nM. The “Concentration at Max Induct.” value in assay [2] came to 10 µM. Besides, in assay [2] (five days), the “Maximum IFN Induction” value was “>> (values from 1.50 to 2.00)”.

`C#C[C@]1(CO[P@@](=O)(N[C@@H](C)C(=O)OC(C)C)Oc2ccccc2)O[C@@H](n2cnc3c(N)nc(F)nc32)C[C@@H]1O` [Compound I-18] returned an IC50 in assay [1] of 50 to 500 nM. For the same molecule, the EC50 in assay [2] (setting [5]) is more than 10000 nM.

Consider `C#C[C@]1(COP(=O)(O)N[C@@H](C)C(=O)OC(C)C)O[C@@H](n2cnc3c(N)nc(Cl)nc32)C[C@@H]1O` [Compound I-47, [(2R,3S,5R)-5-(6-amino-2-chloropurin-9-yl)-2-ethynyl-3-hydroxyoxolan-2-yl]methoxy([(2S)-1-isopropoxy-1-oxopropan-2-yl]amino)phosphinic acid], for which the IC50 is not above 50 nM in assay [1] and more than 10000 nM in assay [4]. In addition, the EC50 in assay [2] (setting [5]) was 1000 to 10000 nM; in assay [2] (THP-1, experiment depicted in FIG. 11 / FIG. 12) it was less than 1000 nM; in assay [2] (setting [6]) it was more than 10000 nM. Besides, in assay [2], the “Concentration at Max Induct.” value was 10 µM. Further, the “Maximum IFN Induction” value in assay [2] (five days) is listed as “>>> (values greater than 2.00)”.

`C#C[C@]1(COP(=O)(O)N[C@H](C)C(=O)OC(C)C)O[C@@H](n2cnc3c(N)nc(Cl)nc32)C[C@@H]1O` [Compound I-48]: the IC50 in assay [1] was not above 50 nM; in assay [4], more than 10000 nM. In addition, the EC50 in assay [2] (setting [5]) fell in the range of 1000 to 10000 nM. The “Concentration at Max Induct.” value in assay [2] stood at 10 µM. Besides, the “Maximum IFN Induction” value in assay [2] (five days) was “> (values from 1.00 to less than 1.50)”.

Take `C#C[C@]1(COP(=O)(O)N[C@@H](C)C(=O)OC(C)C)O[C@@H](n2cnc3c(N)nc(F)nc32)C[C@@H]1O` [Compound I-49]: the IC50 in assay [1] was not above 50 nM. Also, in assay [2] (setting [5]), the EC50 is more than 10000 nM.

In assay [1], `C#C[C@]1(COP(=O)(O)N[C@H](C)C(=O)OC(C)C)O[C@@H](n2cnc3c(N)nc(F)nc32)C[C@@H]1O` [Compound I-50] registered an IC50 of 50 to 500 nM.

As for `C#C[C@]1(CO[P@](=O)(N[C@@H](C)C(=O)OC(C)C)Oc2ccccc2)O[C@@H](n2cnc3c(N)nc(F)nc32)C[C@@H]1O` [Compound I-54], the IC50 in assay [1] is not above 50 nM; in assay [4], more than 10000 nM. Also, the figures for the EC50 in assay [2] (setting [5]) and in assay [2] (setting [6]) were less than 1000 nM and more than 10000 nM, respectively.

Turning to `C#C[C@]1(COP(=O)(N[C@@H](C)C(=O)OC(C)C)OCOC(=O)OC(C)C)O[C@@H](n2cnc3c(N)nc(Cl)nc32)C[C@@H]1O` (stereo partly drawn) [I-14 and I-15, isopropyl (2S)-2-({[(2R,3S,5R)-5-(6-amino-2-chloropurin-9-yl)-2-ethynyl-3-hydroxyoxolan-2-yl]methoxy([(isopropoxycarbonyl)oxy]methoxy)phosphoryl}amino)propanoate], the IC50 in assay [1] was more than 500 nM.

`C#C[C@@]12COP(=O)(OC(C)C)O[C@H]1C[C@H](n1cnc3c(N)nc(Cl)nc31)O2` (some centres unmarked) [IV-1]: the IC50 in assay [1] is 50 to 500 nM.

In assay [1], `C#C[C@@]12COP(=O)(N[C@H](C)C(=O)OC(C)C)O[C@H]1C[C@H](n1cnc3c(N)nc(Cl)nc31)O2` (some centres unmarked) [IV-5] came in with an IC50 of 50 to 500 nM. For the same molecule, the EC50 in assay [2] (setting [5]) was more than 10000 nM.

As for `C#C[C@@]12COP(=O)(N[C@@H](C)C(=O)OC(C)C)O[C@H]1C[C@H](n1cnc3c(N)nc(Cl)nc31)O2` (stereo partly drawn) [IV-6, isopropyl (2S)-2-{[(4aR,6R,7aS)-6-(6-amino-2-chloropurin-9-yl)-4a-ethynyl-2-oxo-tetrahydro-2lambda5-furo[3,2-d][1,3,2]dioxaphosphinin-2-yl]amino}propanoate], the IC50 in assay [1] is 50 to 500 nM; in assay [4] it was 3100 nM; in assay [2] (setting [7]), less than 1000 nM.

In turn, `C#C[C@@]12COP(=O)(OC(C)C)O[C@H]1C[C@H](n1cnc3c(N)nc(F)nc31)O2` (some centres unmarked) [IV-10] displayed an IC50 in assay [1] not above 50 nM.

Turning to `C#C[C@@]12COP(=O)(N[C@H](C)C(=O)OC(C)C)O[C@H]1C[C@H](n1cnc3c(N)nc(F)nc31)O2` (some centres unmarked) [IV-12], the IC50 is 50 to 500 nM in assay [1], more than 10000 nM in assay [4] and 1000 to 5000 nM in assay [2] (setting [7]).

Turning to `C#C[C@@]12COP(=O)(N[C@@H](C)C(=O)OC(C)C)O[C@H]1C[C@H](n1cnc3c(N)nc(F)nc31)O2` (some centres unmarked) [IV-13], the IC50 is 50 to 500 nM in assay [1], 2500 nM in assay [4] and less than 1000 nM in assay [2] (setting [7]).

On to `Nc1ccn([C@H]2CO[C@@H](CO)S2)c(=O)n1` [apricitabine], for which the IC50 in assay [3] was more than 100000 nM.

`Nc1ccn([C@@H]2CS[C@H](CO)O2)c(=O)n1` [lamivudine (3TC), Lamivudine, reference compound]: the figures for the IC50 in assay [1] and in assay [3] were more than 500 nM and more than 100000 nM, respectively.

On to `Nc1nc(=O)c2ncn([C@@H]3C[C@H](CO)[C@H]3CO)c2[nH]1` [lobucavir, reference compound], for which the IC50 is more than 500 nM in assay [1] and more than 100000 nM in assay [3].

The record behind these values is patent US20240366649A1, “4-ETHYNYL-3-HYDROXY-TETRAHYDROFURANYL-ADENINE PHOSPHORAMIDATES AND RELATED COMPOUNDS AND THEIR USE IN TREATING MEDICAL CONDITIONS” (ROME THERAPEUTICS, INC., priority 2021, published 2024).
